From US9315475B2 (MERCK SHARP & DOHME CORP., priority 2011, dated 2016)

target: T1, wildtype HIV-1 protease (Human immunodeficiency virus type 1 group M subtype B, UniProt P04585); assay: Assay for inhibition of microbial expressed HIV protease (Pepcleav); assay type: biochemical; details: wild type HIV-1 protease expressed in E. coli, peptide substrate, pH 5.5; mean of at least two independent experiments; read-out: Pepcleav
T1 construct: the wildtype HIV-1 protease (which was expressed in Escherichia coli); made in house; host or cells: Escherichia coli
Summary of the method: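 Cleavage of 400 μM peptide substrate Val-Ser-Gln-Asn-(βnaphthyl)Ala-Pro-Ile-Val by 20 pM wild-type enzyme (E. coli-expressed) ran 1 h at 30 °C after 30 min inhibitor preincubation, pH 5.5 acetate buffer. Inhibition derived from product peak area by C18 LC with multiple-reaction-monitoring MS after formic acid quench.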

SMILES	IC50
COC(=O)N[C@H](C(=O)Nc1ccccc1CC[C@@H]1CN[C@H](CNC(=O)c2ccccc2Cl)CO1)C(c1ccccc1)c1ccccc1 [Example 55, methyl N-[(1S)-1-benzhydryl-2-[[2-[2-[(2R,5R)-5-[[(2-chloro-benzoyl)amino]methyl]morpholin-2-yl]ethyl]phenyl]amino]-2-oxo-ethyl]carbamate]	30 nM
COC(=O)N[C@H](C(=O)Nc1ccccc1CC[C@@H]1CN[C@H](COC(=O)N[C@H]2COC[C@@H]2F)CO1)C(c1ccccc1)c1ccccc1 [Example 29, N-[2-(2-{(2R,5S)-5-[({[(3S,4R)-4-fluorotetrahydrofuran-3-yl]carbamoyl}oxy)methyl]morpholin-2-yl}ethyl)phenyl]-Nα-(methoxycarbonyl)-β-phenyl-L-phenylalaninamide]	18 nM
CNC(=O)OC[C@@H]1CO[C@H](CCc2ccccc2NC(=O)[C@@H](NC(=O)OC)C(c2ccccc2)c2ccccc2)CN1 [Example 30]	32 nM
N[C@@H](Cc1ccccc1Cl)C(=O)Nc1cccc(F)c1CC[C@@H]1CN[C@H](COC(=O)NCc2ccc(F)cc2)CO1 [Example 204, 2-chloro-N-(3-fluoro-2-{2-[(2R,5S)-5-({[(4-fluorobenzyl)carbamoyl]oxy}methyl)morpholin-2-yl]ethyl}phenyl)-L-phenylalaninamide]	26 nM
CCC[C@@H](c1ccccc1)[C@H](N)C(=O)Nc1cccc(F)c1CC[C@@H]1CN[C@H](COC(=O)NCc2ccc(F)cc2)CO1 [Example 199, (βS)-N-(3-fluoro-2-{2-[(2R,5S)-5-({[(4-fluorobenzyl)carbamoyl]oxy}methyl)morpholin-2-yl]ethyl}phenyl)-β-propyl-L-phenylalaninamide]	41 nM
COC(=O)N[C@H](C(=O)Nc1ccccc1CC[C@@H]1CN[C@H](CCc2ccccc2NC(=O)NCc2ccccc2)CO1)C(c1ccccc1)c1ccccc1 [Example 75, methyl N-[(1S)-1-benzhydryl-2-[[2-[2-[(2R,5R)-5-[2-[2-(benzylcarbamoylamino)phenyl]ethyl]morpholin-2-yl]ethyl]phenyl]amino]-2-oxo-ethyl]carbamate]	4.1 nM
O=C(C[C@H](CC1CC1)c1ccccc1)Nc1cccc(F)c1CC[C@@H]1CN[C@H](COC(=O)NCC(F)(F)F)CO1 [Example 163, {(3S,6R)-6-[2-(2-{[(3S)-4-cyclopropyl-3-phenyl-butanoyl]amino}-6-fluoro-phenyl)ethyl]morpholin-3-yl}methyl (2,2,2-trifluoroethyl)carbamate]	1100 nM
N[C@@H](C(=O)Nc1cncc(F)c1CC[C@@H]1CN[C@H](CO)CO1)[C@@H](c1ccccc1)c1ccnc2ccccc12 [Example 225, (βS)-N-(5-fluoro-4-{2-[(2R,5R)-5-(hydroxymethyl)morpholin-2-yl]ethyl}pyridin-3-yl)-β-quinolin-4-yl-D-phenylalaninamide]	2700 nM
COC(=O)N[C@H](C(=O)Nc1ccccc1CC[C@@H]1CN[C@H](CNC(=O)c2cc3ccccc3[nH]2)CO1)C(c1ccccc1)c1ccccc1 [Example 56, methyl N-[(1S)-1-benzhydryl-2-[[2-[2-[(2R,5R)-5-[(1H-indole-2-carbonylamino)methyl]morpholin-2-yl]ethyl]phenyl]amino]-2-oxo-ethyl]carbamate]	34 nM
COC(=O)N[C@H](C(=O)Nc1ccccc1CC[C@@H]1CN[C@H](C(N)=O)CO1)C(c1ccccc1)c1ccccc1 [Example 11, methyl [(1S)-2-[(2-{2-[(2R,5S)-5-(aminocarbonyl)morpholin-2-yl]ethyl}phenyl)amino]-1-(diphenylmethyl)-2-oxoethyl]carbamate]	80 nM
COC(=O)N[C@H](C(=O)Nc1ccccc1CC[C@@H]1CN[C@H](CNS(=O)(=O)C2CC2)CO1)C(c1ccccc1)c1ccccc1 [Example 47, methyl N-[(1S)-1-benzhydryl-2-[[2-[2-[(2R,5R)-5-[(cyclopropyl-sulfonylamino)methyl]morpholin-2-yl]ethyl]phenyl]amino]-2-oxo-ethyl]carbamate]	84 nM
COC(=O)N[C@H](C(=O)Nc1ccccc1CC[C@@H]1CN[C@H](CSc2ccccc2)CO1)C(c1ccccc1)c1ccccc1 [Example 62, Nα-(methoxycarbonyl)-β-phenyl-N-[2-(2-{(2R,5S)-5-[(phenylsulfanyl)methyl]morpholin-2-yl}ethyl)phenyl]-L-phenylalaninamide]	130 nM
COC(=O)N[C@H](C(=O)Nc1ccccc1CC[C@@H]1CO[C@H](CCc2ccccc2NC(=O)[C@@H](NC(=O)OC)C(c2ccccc2)c2ccccc2)CN1)C(c1ccccc1)c1ccccc1 [Example 68, dimethyl [(2R,5R)-morpholine-2,5-diylbis {ethane-2,1-diylbenzene-2,1-diylimino[(2S)-1-oxo-3,3-diphenylpropane-1,2-diyl]}]biscarbamate]	0.03 nM
COC(=O)N[C@H](C(=O)Nc1ccccc1CC[C@@H]1CN[C@H](COC(=O)NC(C2CC2)C(F)(F)F)CO1)C(c1ccccc1)c1ccccc1 (stereo partly drawn) [Example 31, N-(2-{2-[(2R,5S)-5-({[(1-cyclopropyl-2,2,2 trifluoroethyl)carbamoyl]oxy}methyl)morpholin-2-yl]ethyl}phenyl)-Nα-(methoxycarbonyl)-β-phenyl-L-phenylalaninamide]	29 nM
COC(=O)N[C@H](C(=O)Nc1ccccc1CC[C@@H]1CN[C@H](CNC(=O)c2c(C)cccc2C)CO1)C(c1ccccc1)c1ccccc1 [Example 57, methyl N-[(1S)-1-benzhydryl-2-[[2-[2-[(2R,5R)-5-[[(2,6-dimethylbenzoyl)amino]methyl]morpholin-2-yl]ethyl]phenyl]amino]-2-oxo-ethyl]carbamate]	50 nM
C[C@H](NC(=O)OC[C@@H]1CO[C@H](COc2c(F)cccc2NC(=O)[C@@H](N)C(c2ccc(F)cc2)c2ccc(F)cc2)CN1)c1ccc(F)cc1 [Example 210, 4-fluoro-N-[3-fluoro-2-({(2S,5S)-5-[({[(1S)-1-(4-fluorophenyl)ethyl]carbamoyl}oxy)methyl]morpholin-2-yl}methoxy)phenyl]-β-(4-fluorophenyl)-L-phenylalaninamide]	13 nM
N[C@H](C(=O)Nc1cncc(F)c1CC[C@@H]1CN[C@H](COC(=O)N2CCOCC2)CO1)C(c1ccc(F)cc1)c1ccc(F)cc1 [Example 197, {(3S,6R)-6-[2-(3-fluoro-5-{[4-fluoro-β-(4-fluorophenyl)-L-phenylalanyl]amino}pyridin-4-yl)ethyl]morpholin-3-yl}methyl morpholine-4-carboxylate]	68 nM
COC(=O)N[C@H](C(=O)Nc1cnccc1CC[C@@H]1CN[C@H](COC(=O)NCc2ccc(F)cc2)CO1)C(c1ccccc1)c1ccccc1 [Example 33, N-(4-{2-[(2R,5S)-5-({[(4-fluorobenzyl)carbamoyl]oxy}methyl)morpholin-2-yl]ethyl}pyridin-3-yl)-Nα-(methoxycarbonyl)-β-phenyl-L-phenylalaninamide]	5.7 nM
COC(=O)NCC(=O)Nc1ccccc1CC[C@@H]1CO[C@H](CCc2ccccc2NC(=O)[C@@H](NC(=O)OC)C(c2ccccc2)c2ccccc2)CN1 [Example 69, methyl N-[(1S)-1-benzhydryl-2-[[2-[2-[(2R,5R)-5-[2-[2-[[2-(methoxycarbonylamino)acetyl]amino]phenyl]ethyl]morpholin-2-yl]ethyl]phenyl]amino]-2-oxo-ethyl]carbamate]	3.4 nM
COC(=O)N[C@H](C(=O)Nc1ncccc1CC[C@@H]1CN[C@H](COC(=O)NCc2ccc(F)cc2)CO1)C(c1ccccc1)c1ccccc1 [Example 32, N-(3-{2-[(2R,5S)-5-({[(4-fluorobenzyl)carbamoyl]oxy}methyl)morpholin-2-yl]ethyl}pyridin-2-yl)-Nα-(methoxycarbonyl)-β-phenyl-L-phenylalaninamide]	21 nM
CCN(CC)C(=O)OC[C@@H]1CO[C@H](CCc2ccccc2NC(=O)[C@@H](NC(=O)OC)C(c2ccccc2)c2ccccc2)CN1 [Example 25]	120 nM
C[C@H](Oc1c(F)cccc1NC(=O)[C@@H](N)C(c1ccc(F)cc1)c1ccc(F)cc1)[C@@H]1CN[C@H](COC(=O)NCc2ccc(F)cc2)CO1 [Example 195, 4-fluoro-N-(3-fluoro-2-{(1S)-1-[(2S,5S)-5-({[(4-fluorobenzyl)carbamoyl]oxy}methyl)morpholin-2-yl]ethoxy}phenyl)-β-(4-fluorophenyl)-L-phenylalaninamide]	91 nM

test system: HIV-1 (H9IIIB strain); assay: Antiviral acute infection assay in cell culture (Spread); assay type: cell-based; details: Human immunodeficiency virus 1, T-lymphoid, HIV-1 H9IIIB infection of MT-4 human T-lymphoid cells in 10% FBS; mean of at least two independent experiments
Text: Antiviral Assays in Cell Culture (“Spread”)
Acute Infection Assay (“Spread”) data were generated using HIV-1 (H9IIIB strain) infection of MT-4 human T-lymphoid cells in 10% FBS, and according to the methods disclosed by J. P. Vacca et al, “L-735,524: An orally bioavailable human immunodeficiency virus type 1 protease inhibitor,” Proc. Natl. Acad. Sci. USA, Vol. 91, pp. 4096-4100 (April 1994).

SMILES	EC50
O=C(CC(c1ccc(F)cc1)c1ccc(F)cc1)Nc1cncc(F)c1CC[C@@H]1CN[C@H](COC(=O)NCc2ccno2)CO1 [Example 188, {(3S,6R)-6-[2-(3-{[3,3-bis(4-fluoro-phenyl)propanoyl]amino}-5-fluoropyridin-4-yl)ethyl]morpholin-3-yl}methyl (isoxazol-5-ylmethyl)carbamate]	50 nM
COC(=O)N[C@H](C(=O)Nc1cncc(F)c1CC[C@@H]1CN[C@H](COC(=O)NCC(F)(F)F)CO1)[C@@H](c1ccc(Cl)cc1)c1ccc2c(c1)OCO2 [Example 104, (βS)-β-1,3-Benzodioxol-5-yl-4-chloro-N-(5-fluoro-4-{2-[(2R,5S)-5-({[(2,2,2-trifluoroethyl)carbamoyl]oxy}methyl)morpholin-2-yl]ethyl}pyridin-3-yl)-Nα-(methoxycarbonyl)-L-phenylalaninamide]	26 nM
